US5912330A, “Crystalline maltosyl glucoside, and its production and use” (Kabushiki Kaisha Hayashibara Seibutsu Kagaku Kenkyujo, priority 1994, dated 1999)
Converted amounts (≈) assume the structure as drawn.

Assays:
[1] = Hygroscopicity: water content and appearance at 90.1% relative humidity; assay type: physicochemical; settings: for Hygroscopicity and appearance: in words
Procedure: About 1 g powder of hydrous crystalline maltosyl glucoside, anhydrous crystalline maltosyl glucoside or amorphous crystalline maltosyl glucoside was placed in a polyethylene vessel and allowed to stand in high humidity conditions of 90.1% relative humidity, and the changes of moisture content and appearance of these powders were observed and measured at a prescribed interval. Hydrous and anhydrous crystals, which were prepared by the methods of Experiment B-1, and amorphous crystal, which was prepared by dissolving hydrous crystal substance in deionized water and dried in vacuo to obtain a test sample.

Solubility in water = assay type: physicochemical; settings: 25° C. water
Procedure: (8) Solubility (as anhydride)
Up to about 163 g each hydrous and anhydrous crystals were respectively soluble in 100 ml of 25° C. water.

mice = assay: Acute toxicity in mice upon oral administration; assay type: in vivo; settings: for mortality: maximum administrable dose
Procedure: (§1) Hydrous and anhydrous crystalline maltosyl glucosides prepared by the method in Experiment B-1 were tested for acute toxicity in mice upon oral administration.

[2] = Moisture adsorption / hygroscopicity of the products of the Examples; assay type: physicochemical
[3] = Acute toxicity in mice upon oral administration; assay type: in vivo; settings: mouse, in vivo
Procedure: as §1

[4] = Reducing power (DE) by Somogyi-Nelson method; assay type: physicochemical; settings: dextrose equivalent
From the text: For purifying these newly formed saccharides, the reaction products were decolored, deionized, concentrated and subjected to column fractionation using a strongly-acidic cation exchanger in alkali-metal form ("XT-1016", Na^+ form, 4% cross-linking degree, a product of Tokyo Organic Chemical Industries, Ltd., Tokyo, Japan). More particularly, the cation exchanger was packed in 3 jacketed stainless steel columns, inner diameter of 2.0 cm, length of 1 m each, cascaded in series, which were then loaded with either reaction product in an amount of 5 v/v % to the volume of the cation exchanger and then applied with 55° C. water at an SV (space velocity) 0.13 for fractionation, and fractions containing 97% or more newly formed saccharides were collected. The obtained fractions were separately lyophilized into high-purity saccharide preparations. The yields against particular material substrates were about 9% for PI, about 65% for PII, about 82% for PIII, about 80% for PIV and about 77% for PV, and the final purities were 97.5% for PI, 98.6% for PII, 99.5% for PIII, 98.4% for PIV and 98.4% for PV.
These high-purity saccharide preparations were tested for their reducing powers with the Somogyi-Nelson method and their reducing powers were represented in terms of DE (dextrose equivalent).

Row | SMILES | Water content ([1]; 0 hour) [%] | Water content ([1]; 2 hours) [%] | Water content ([1]; 8 hours) [%] | Water content ([1]; 24 hours) [%] | Hygroscopicity and appearance [1] | DE [4] | also measured
1 | OC[C@H]1O[C@H](O[C@H]2O[C@H](CO)[C@@H](O[C@H]3O[C@H](CO)[C@@H](O)[C@H](O)[C@H]3O)[C@H](O)[C@H]2O)[C@H](O)[C@@H](O)[C@@H]1O [Amorphous crystal, O-α-D-glucopyranosyl-(→4)-α-D-glucopyranosyl α-D-glucopyranoside] | 0.5 | 6.3 | 17.4 | 20.0 | very hygroscopic, readily solidified, and free flowing |  | 
2 | OC[C@H]1O[C@H](O[C@H]2O[C@H](CO)[C@@H](O[C@H]3O[C@H](CO)[C@@H](O)[C@H](O)[C@H]3O)[C@H](O)[C@H]2O)[C@H](O)[C@@H](O)[C@@H]1O [Anhydrous crystal, O-α-D-glucopyranosyl-(→4)-α-D-glucopyranosyl α-D-glucopyranoside] | 0.3 | 10.3 | 10.4 | 10.5 | hygroscopic, however, had no change of appearance and retained free-flowing ability |  | Solubility (as anhydride) (Solubility in water): about 163 g/100 ml; LD50 (mice): ≥ 50000 mg/kg; mortality (mice): no mouse died
3 | OC[C@H]1O[C@H](O[C@H]2O[C@H](CO)[C@@H](O[C@H]3O[C@H](CO)[C@@H](O)[C@H](O)[C@H]3O)[C@H](O)[C@H]2O)[C@H](O)[C@@H](O)[C@@H]1O [Example A-1] |  |  |  |  |  |  | hygroscopicity ([2]; in words, product of the Example): substantially no hygroscopicity
4 | OC[C@H]1O[C@H](O[C@H]2O[C@H](CO)[C@@H](O[C@H]3O[C@H](CO)[C@@H](O)[C@H](O)[C@H]3O)[C@H](O)[C@H]2O)[C@H](O)[C@@H](O)[C@@H]1O [Example A-5] |  |  |  |  |  |  | water content after standing in a room ([2]; anhydrous crystal converted into hydrous crystal): about 10%
5 | OC[C@H]1O[C@H](O[C@H]2O[C@H](CO)[C@@H](O[C@H]3O[C@H](CO)[C@@H](O)[C@H](O)[C@H]3O)[C@H](O)[C@H]2O)[C@H](O)[C@@H](O)[C@@H]1O [Hydrous crystal, O-α-D-glucopyranosyl-(→4)-α-D-glucopyranosyl α-D-glucopyranoside] | 9.9 | 10.4 | 10.5 | 10.5 | less hygroscopic, free flowing, and readily handleable |  | solubility (Solubility in water; read-out: Solubility (as anhydride)): ~1630 mg/mL (≈ 3230 mM); LD50 [3]: ≥ 50000 mg/kg; mortality (mice): no mouse died
6 | OC[C@H]1O[C@H](O[C@H]2O[C@H](CO)[C@@H](O[C@H]3O[C@H](CO)[C@@H](O)[C@H](O)[C@H]3O)[C@H](O)[C@H]2O)[C@H](O)[C@@H](O)[C@@H]1O [PI, α-maltosyl glucoside] |  |  |  |  |  | 0.83 | 
7 | OC[C@H]1O[C@H](O[C@H]2O[C@H](CO)[C@@H](O[C@H]3O[C@H](CO)[C@@H](O[C@H]4O[C@H](CO)[C@@H](O)[C@H](O)[C@H]4O)[C@H](O)[C@H]3O)[C@H](O)[C@H]2O)[C@H](O)[C@@H](O)[C@@H]1O [PII, α-maltotriosyl glucoside] |  |  |  |  |  | 0.35 | 
8 | OC[C@H]1O[C@H](O[C@H]2O[C@H](CO)[C@@H](O[C@H]3O[C@H](CO)[C@@H](O[C@H]4O[C@H](CO)[C@@H](O[C@H]5O[C@H](CO)[C@@H](O)[C@H](O)[C@H]5O)[C@H](O)[C@H]4O)[C@H](O)[C@H]3O)[C@H](O)[C@H]2O)[C@H](O)[C@@H](O)[C@@H]1O [PIII, α-maltotetraosyl glucoside] |  |  |  |  |  | 0.10 | 
9 | OC[C@H]1O[C@H](O[C@H]2O[C@H](CO)[C@@H](O[C@H]3O[C@H](CO)[C@@H](O[C@H]4O[C@H](CO)[C@@H](O[C@H]5O[C@H](CO)[C@@H](O[C@H]6O[C@H](CO)[C@@H](O)[C@H](O)[C@H]6O)[C@H](O)[C@H]5O)[C@H](O)[C@H]4O)[C@H](O)[C@H]3O)[C@H](O)[C@H]2O)[C@H](O)[C@@H](O)[C@@H]1O [PIV, α-maltopentaosyl glucoside] |  |  |  |  |  | 0.27 | 
10 | OC[C@H]1O[C@H](O[C@H]2O[C@H](CO)[C@@H](O[C@H]3O[C@H](CO)[C@@H](O[C@H]4O[C@H](CO)[C@@H](O[C@H]5O[C@H](CO)[C@@H](O[C@H]6O[C@H](CO)[C@@H](O[C@H]7O[C@H](CO)[C@@H](O)[C@H](O)[C@H]7O)[C@H](O)[C@H]6O)[C@H](O)[C@H]5O)[C@H](O)[C@H]4O)[C@H](O)[C@H]3O)[C@H](O)[C@H]2O)[C@H](O)[C@@H](O)[C@@H]1O [PV, α-maltohexaosyl glucoside] |  |  |  |  |  | 0.23 | 
